From patent US9273067B2, “Pyrazolopyrimidine macrocycles as inhibitors of human immunodeficiency virus replication” (BRISTOL-MYERS SQUIBB COMPANY, priority 2014, dated 2016)
“And” between values parts separate entries of the source, which are not always exact repeats. Equal entries are not always repeated. Where two headings read alike, the source gives them in different places.

How the values were obtained:
[1] = tested on: NL-RLuc virus (recombinant HIV NL4-3 with Renilla Luciferase) in MT-2 cells; experiment: Inhibition of HIV replication (NL-RLuc virus in MT-2 cells, luciferase readout); format: cell-based, human immunodeficiency virus (HIV)
Procedure, shortened: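 NL4-3 carrying Renilla luciferase in place of part of nef, produced in 293T cells, was used to infect MT-2 cells in RPMI 1640/10% FBS with serial compound dilutions. After 5 days, virus growth was read by luciferase. EC50 came from the median effect equation over at least 2 experiments.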

[2] = MT2, 120 h, NL-RLuc virus infecting MT-2 cells, 5 days of incubation, 10% FBS, luciferase quantitation, at least 2 experiments
[3] = NL-RLuc virus infecting MT-2 cells, 5 days of incubation, 10% FBS, luciferase quantitation, at least 2 experiments, read-out: EC50

SMILES: CCOC(=O)[C@@H](OC(C)(C)C)c1c(C)nc2cc3nn2c1N1CCC(C)(CC1)OCCCC[C@H](C)Oc1c(F)cc(F)cc1CCC3
- ring closure, yield after HPLC (from CCOC(=O)[C@@H](OC(C)(C)C)c1c(C)nc2cc(CCCc3cc(F)cc(F)c3O)nn2c1N1CCC(C)(OCCCC[C@@H](C)O)CC1, ether bond, 20-membered ring, PPh3/DEAD, THF, 6.4 mM, 3.0 h, 2 steps): 37.6%

SMILES: CCOC(=O)[C@@H](OC(C)(C)C)c1c(C)nc2cc3nn2c1N1CCC(C)(CC1)OCC=CCN(Cc1ccc(F)c(C)c1)C(=O)C(=O)NC3
- ring closure, yield after HPLC (from C=CCOC1(C)CCN(c2c([C@H](OC(C)(C)C)C(=O)OCC)c(C)nc3cc(CNC(=O)C(=O)N(CC=C)Cc4ccc(F)c(C)c4)nn23)CC1, rcm bond, 18-membered ring, Hoveyda-Grubbs II (5 mol%), then NaOH, 1,2-dichloroethane, 4.03 mM, 70.0 °C, 2.0 h, 2 steps): 63.3%

SMILES: CCOC(=O)[C@@H](OC(C)(C)C)c1c(C)nc2cc3nn2c1N1CCC(C)(CC1)OCC=CCc1ccccc1C(=O)NC3
- ring closure, yield after HPLC (from C=CCOC1(C)CCN(c2c([C@H](OC(C)(C)C)C(=O)OCC)c(C)nc3cc(CNC(=O)c4ccccc4CC=C)nn23)CC1, rcm bond, 18-membered ring, Hoveyda-Grubbs II (5 mol%), then NaOH, 1,2-dichloroethane, 4.7 mM, 70.0 °C, 2.0 h, 2 steps): 71.1%

SMILES: CCOC(=O)[C@@H](OC(C)(C)C)c1c(C)nc2cc3nn2c1N1CCC(C)(CC1)OCC=CCOC1(CCCCC1)c1cn(nn1)C3
- ring closure, yield after HPLC (from C=CCOC1(C)CCN(c2c([C@H](OC(C)(C)C)C(=O)OCC)c(C)nc3cc(Cn4cc(C5(OCC=C)CCCCC5)nn4)nn23)CC1, rcm bond, 19-membered ring, Hoveyda-Grubbs II (5 mol%), then NaOH, 1,2-dichloroethane, 4.3 mM, 70.0 °C, 2.0 h, 2 steps): 30.6% and 24.1%

SMILES: CCOC(=O)[C@@H](OC(C)(C)C)c1c(C)nc2cc3nn2c1N1CCC(C)(CC1)OCC=CCOc1cccc(c1)-c1cn(nn1)C3
- ring closure, yield after HPLC (from C=CCOc1cccc(-c2cn(Cc3cc4nc(C)c([C@H](OC(C)(C)C)C(=O)OCC)c(N5CCC(C)(OCC=C)CC5)n4n3)nn2)c1, rcm bond, 21-membered ring, Hoveyda-Grubbs II (5 mol%), then H2, Pd/C, then NaOH, 1,2-dichloroethane, 1.8 mM, 70.0 °C, 2.0 h, 3 steps): 37.2%

SMILES: CCOC(=O)[C@@H](OC(C)(C)C)c1c(C)nc2cc3nn2c1N1CCC(C)(CC1)OCCCC[C@H](C)Oc1cc(F)c(F)cc1CCC3
- ring closure, yield after HPLC (from CCOC(=O)[C@@H](OC(C)(C)C)c1c(C)nc2cc(CCCc3cc(F)c(F)cc3O)nn2c1N1CCC(C)(OCCCC[C@@H](C)O)CC1, ether bond, 20-membered ring, PPh3/DEAD, THF, 10.5 mM, 3.0 h, 2 steps): 19.2%

SMILES: Cc1nc2cc3nn2c(c1[C@H](OC(C)(C)C)C(=O)O)N1CCC(C)(CC1)OCCCCOC(CC(C)C)c1cn(nn1)C3 (stereo partly drawn) [Example 13, (2S)-2-(tert-Butoxy)-2-[4,22-dimethyl-15-(2-methylpropyl)-16,21-dioxa-1,5,7,8,11,12,13-heptaazapentacyclo[20.2.2.1^6,^9.1^11,^14.0^2,^7]octacosa-2,4,6(28),8,12,14(27)-hexaen-3-yl]acetic acid]
- EC50 ([1]; {}): 124 nM

SMILES: Cc1nc2cc3nn2c(c1[C@H](OC(C)(C)C)C(=O)O)N1CCC(C)(CC1)OCCCC[C@H](C)Oc1ccc(F)cc1COC3 [Example 28, (2S)-2-(tert-Butoxy)-2-[(20S)-15-fluoro-4,20,26-trimethyl-11,19,25-trioxa-1,5,7,8-tetraazapentacyclo[24.2.2.1^6,^9.0^2,^7.0^13,^18]hentriaconta-2,4,6(31),8,13,15,17-heptaen-3-yl]acetic acid]
- EC50 [1, 2]: 5 nM

SMILES: Cc1nc2cc3nn2c(c1[C@H](OC(C)(C)C)C(=O)O)N1CCC(C)(CC1)OCCCCCc1ccccc1COC3 [Example 57, (2S)-2-(tert-Butoxy)-2-{4,25-dimethyl-11,24-dioxa-1,5,7,8-tetraazapentacyclo[23.2.2.1^6,^9.0^2,^7.0^13,^18]triaconta-2,4,6(30),8,13(18),14,16-heptaen-3-yl}acetic acid]
- EC50 [1, 2]: 34 nM

SMILES: Cc1nc2cc3nn2c(c1[C@H](OC(C)(C)C)C(=O)O)N1CCC(C)(CC1)OCCCc1cc(F)ccc1COC3 [Example 67, (2S)-2-(tert-Butoxy)-2-{16-fluoro-4,23-dimethyl-11,22-dioxa-1,5,7,8tetraazapentacyclo[21.2.2.1^6,^9.0^2,^7.0^13,^18]octacosa-2,4,6(28),8,13(18),14,16-heptaen-3-yl}acetic acid]
- EC50 [1, 2]: 5 nM

SMILES: Cc1ccc2c(c1)O[C@@H](C)C/C=C\COC1(C)CCN(CC1)c1c([C@H](OC(C)(C)C)C(=O)O)c(C)nc3cc(nn13)COC2 [Example 36, (2S)-2-(tert-Butoxy)-2-[(20S,22Z)-4,16,20,26-tetramethyl-11,19,25-trioxa-1,5,7,8-tetraazapentacyclo[24.2.2.1^6,^9.0^2,^7.0^13,^18]hentriaconta-2,4,6(31),8,13(18),14,16,22-octaen-3-yl]acetic acid]
- EC50 [1, 3]: 3690 nM

SMILES: Cc1nc2cc3nn2c(c1[C@H](OC(C)(C)C)C(=O)O)N1CCC(C)(CC1)OCC/C=C\c1ccccc1OC3 [Example 20]
- EC50 [1, 3]: 105 nM

SMILES: Cc1nc2cc3nn2c(c1[C@H](OC(C)(C)C)C(=O)O)N1CCC(C)(CC1)OC=CCCOC(C)(C)c1cn(nn1)C3 [Example 3, (2S)-2-(tert-Butoxy)-2-[4,15,15,22-tetramethyl-16,21-dioxa-1,5,7,8,11,12,13-heptaazapentacyclo[20.2.2.1^6,^9.1^11,^14.0^2,^7]octacosa-2,4,6(28),8,12,14(27),19-heptaen-3-yl]acetic acid]
- EC50 [1, 3]: 253 nM

SMILES: Cc1nc2cc3nn2c(c1[C@H](OC(C)(C)C)C(=O)O)N1CCC(C)(CC1)OCCCC[C@H](C)Oc1ccc(F)c(F)c1CCC3 [Example 42, (2S)-2-(tert-Butoxy)-2-[(20S)-14,15-difluoro-4,20,26-trimethyl-19,25-dioxa-1,5,7,8-tetraazapentacyclo[24.2.2.1^6,^9.0^2,^7.0^13,^18]hentriaconta-2,4,6(31),8,13(18),14,16-heptaen-3-yl]acetic acid]
- EC50 [1, 2]: 2 nM

SMILES: Cc1nc2cc3nn2c(c1[C@H](OC(C)(C)C)C(=O)O)N1CCC(C)(CC1)OC=CCCOC1(CCCCC1)c1cn(nn1)C3 [Example 7, (2S)-2-(tert-Butoxy)-2-[4′,22′-dimethyl-16′,21′-dioxa-1′,5′,7′,8′ 11′,12′,13′-heptaazaspiro[cyclohexane-1,15′-pentacyclo[20.2.2.1^6,^9.1^11,^14.0^2,^7]octacosane]-2′,4′,6′(28′),8′,12′,14′(27′),19′-heptaen-3′-yl]acetic acid]
- EC50 [1, 3]: 134 nM

SMILES: Cc1cc2c(cc1Cl)COCc1cc3nc(C)c([C@H](OC(C)(C)C)C(=O)O)c(n3n1)N1CCC(C)(CC1)OCCCCC[C@H](C)O2 [Example 70, (2S)-2-(tert-Butoxy)-2-[(20S)-15-chloro-4,16,20,27-tetramethyl-11,19,26-trioxa-1,5,7,8-tetraazapentacyclo[25.2.2.1^6,^9.0^2,^7.0^13,^18]dotriaconta-2,4,6(32),8,13,15,17-heptaen-3-yl]acetic acid]
- EC50 [1, 2]: 43 nM

SMILES: Cc1nc2cc3nn2c(c1[C@H](OC(C)(C)C)C(=O)O)N1CCC(C)(CC1)OCCCCOCc1cn(nn1)C3 [Example 2, (2S)-2-(tert-Butoxy)-2-{4,22-dimethyl-16,21-dioxa-1,5,7,8,11,12,13-heptaazapentacyclo[20.2.2.1^6,^9.1^11,^14.0^2,^7]octacosa-2,4,6(28),8,12,14(27)-hexaen-3-yl}acetic acid]
- EC50 [1, 2]: 2690 nM

SMILES: Cc1nc2cc3nn2c(c1[C@H](OC(C)(C)C)C(=O)O)N1CCC(C)(CC1)OCCCC[C@H](C)Oc1cc(F)ccc1CCC3 [Example 39, (2S)-2-(tert-Butoxy)-2-[(20S)-16-fluoro-4,20,26-trimethyl-19,25-dioxa-1,5,7,8-tetraazapentacyclo[24.2.2.1^6,^9.0^2,^7.0^13,^18]hentriaconta-2,4,6(31),8,13(18),14,16-heptaen-3-yl]acetic acid]
- EC50 [1, 2]: 5 nM

SMILES: CCCC1CCCCOC2(C)CCN(CC2)c2c([C@H](OC(C)(C)C)C(=O)O)c(C)nc3cc(nn23)COCc2ccc(C)cc2O1 (stereo partly drawn) [Example 44, (2S)-2-(tert-Butoxy)-2-{4,16,26-trimethyl-20-propyl-11,19,25-trioxa-1,5,7,8-tetraazapentacyclo[24.2.2.1^6,^9.0^2,^7.0^13,^18]hentriaconta-2,4,6(31),8,13(18),14,16-heptaen-3-yl}acetic acid]
- EC50 ([1]; {}): 5 nM

SMILES: Cc1nc2cc3nn2c(c1[C@H](OC(C)(C)C)C(=O)O)N1CCC(C)(CC1)OCCCc1ccccc1COC3 [Example 23, (2S)-2-(tert-Butoxy)-2-{4,23-dimethyl-11,22-dioxa-1,5,7,8-tetraazapentacyclo[21.2.2.1^6,^9.0^2,^7.0^13,^18]octacosa-2,4,6(28),8,13(18),14,16-heptaen-3-yl}acetic acid]
- EC50 [1, 2]: 11 nM

SMILES: Cc1nc2cc3nn2c(c1[C@H](OC(C)(C)C)C(=O)O)N1CCC(C)(CC1)OCCCCC(c1ccccc1)Oc1ccc(F)cc1COC3 (stereo partly drawn) [Example 52, (2S)-2-(tert-butoxy)-2-{15-fluoro-4,26-dimethyl-20-phenyl-11,19,25-trioxa-1,5,7,8-tetraazapentacyclo[24.2.2.1^6,^9.0^2,^7.0^13,^18]hentriaconta-2,4,6(31),8,13(18),14,16-heptaen-3-yl}acetic acid]
- EC50 ([1]; {}): 60 nM

SMILES: Cc1nc2cc3nn2c(c1[C@H](OC(C)(C)C)C(=O)O)N1CCC(C)(CC1)OCCCC[C@H](C)Oc1cc(F)cc(F)c1COC3 [Example 32, (2S)-2-(tert-Butoxy)-2-[(20S)-14,16-difluoro-4,20,26-trimethyl-11,19,25-trioxa-1,5,7,8-tetraazapentacyclo[24.2.2.1^6,^9.0^2,^7.0^13,^18]hentriaconta-2,4,6(31),8,13,15,17-heptaen-3-yl]acetic acid]
- EC50 [1, 2]: 3 nM

SMILES: Cc1nc2cc3nn2c(c1[C@H](OC(C)(C)C)C(=O)O)N1CCC(C)(CC1)OCCCC[C@H](C)Oc1c(F)cc(F)cc1CCC3 [Example 41, (2S)-2-(tert-Butoxy)-2-[(20S)-15,17-difluoro-4,20,26-trimethyl-19,25-dioxa-1,5,7,8-tetraazapentacyclo[24.2.2.1^6,^9.0^2,^7.0^13,^18]hentriaconta-2,4,6(31),8,13(18),14,16-heptaen-3-yl]acetic acid]
- EC50 [1, 2]: 10 nM
